Patent US20050209446A1, “Novel 15-membered cyclic azalide, novel 16-membered cyclic diazalide derivative, and process for producing these” (Meiji Seika Kaisha Ltd., priority 2002, published 2005)
Values after ≈ are worked out from the molar mass of the structure shown.

Columns and labels:
[1] = type: in vitro ADME, mouse
Experimental: Antibacterial activities of the compound of Example 19 after treatment with mouse liver homogenate were examined as follows. Antibacterial activities of MOM were examined in the same manner for comparison. The liver was collected from a mouse, and added with a phosphate buffer to prepare 5% homogenate. A 50 μl of the test drug solution, dissolved in methanol so as to be 150 μg/ml, was added to 1.45 ml of the mouse liver homogenate, and the mixture was allowed to react at 37° C. Each portion of the reaction mixture was collected at the beginning of the reaction, and after 10, 20 and 40 minutes, and added with a given volume of an acetonitrile solution to prepare each bioassay sample for the measurement of a concentration of the test drug. […] After the incubation, a diameter of growth inhibitory circle of Micrococcus luteus ATCC9341 observed around the paper disc was measured with a digital slide calipers. […] On the basis of a calibration curve which was drawn from the concentrations and the diameters of growth inhibitory circles of the standard solutions, residual activities of the samples at the above sampling times were calculated, and compared with antibacterial activities at the beginning of the reaction.

[2] = system: Moraxella catarrhalis W-0506; test: Antibacterial activity test in vitro (agar dilution MIC); type: cell-based; details: 37° C., about 20 hours; for Minimum inhibitory concentration (MIC): blood agar medium
Experimental: (§1) Antibacterial activities in vitro of the compounds of Examples 19 and 25 were measured as follows by referring to the standard method of Japanese Society of Chemotherapy (Chemotherapy, Vol. 29, p. 76-79, 1981). Antibacterial activities of miokamycin (MOM) was measured in the same manner for comparison.
(§2) For each of the solutions of the test drugs, which were dissolved in methanol so as to be 6,400 μg/ml, serial two-fold diluents with methanol were prepared. Each 200 μl of the test drug solutions prepared was placed in a laboratory dish, and the agar medium for sensitivity measurement, which was added with 5% equine sterile defibrinated blood, 15 μg/ml, β-Nicotinamide-adenine dinucleotide and 2.5 μg/ml hemin, was dispensed in 10 ml aliquots into the dish and then mixed with the solution for dilution to prepare the agar plate containing the test drug. A given amount of the liquid medium for the sensitivity measurement, which was prepared so as to contain a given amount of test bacterium was inoculated on the agar plate containing the test drug by a microplanter (Sakuma Seisakusyo, Co. Ltd.), and after the inoculation, the plate was incubated at 37° C. for about 20 hours. After the incubation, the existence of growth of the test bacterium was visually observed, and a minimum concentration at which no growth was observed was defined as a minimum inhibitory concentration of a test drug (MIC) against each of test bacteria.

[3] = system: Haemophilus influenzae 9334; test: as above; type: cell-based; details: blood agar medium, 37° C., about 20 hours
Experimental: as §1, §2

[4] = system: Streptococcus pneumoniae IP692; test: as above; type: cell-based; details: blood agar medium, 37° C., about 20 hours
Experimental: as §1, §2

[5] = system: Streptococcus pneumoniae DP1 TypeI; test: as above; type: cell-based; details: blood agar medium, 37° C., about 20 hours
Experimental: as §1, §2

[6] = system: Micrococcus luteus ATCC9341; test: as above; type: cell-based; details: blood agar medium, 37° C., about 20 hours
Experimental: as §1, §2

[7] = system: Staphylococcus aureus Smith; test: as above; type: cell-based; details: blood agar medium, 37° C., about 20 hours
Experimental: as §1, §2

[8] = system: test bacteria; test: Antibacterial activity test in vitro, overall statement; type: cell-based; details: summary of Table 1
Experimental: as §1
as §2, with “After the incubation, the existence of growth of the test bacterium was visually observed, and a minimum concentration at which no growth was observed was defined as a minimum inhibitory concentration of a test drug (MIC) against each of test bacteria.” left out

[9] = read-out: Minimum inhibitory concentration (MIC)

Compound | residual antibacterial activities after treatment with mouse liver homogenate, compared with the start of the reaction [1] | Minimum inhibitory concentration (MIC) [2] [µg/mL] | Minimum inhibitory concentration (MIC) [3] [µg/mL] | Minimum inhibitory concentration (MIC) [4] [µg/mL] | Minimum inhibitory concentration (MIC) [5] [µg/mL] | Minimum inhibitory concentration (MIC) [6] [µg/mL] | Minimum inhibitory concentration (MIC) [7] [µg/mL] | antibacterial activities compared with MOM [8] | MIC ([2]; W0506, blood agar medium, read-out: Minimum inhibitory concentration (MIC)) [µg/mL] | MIC [3, 9] [µg/mL] | MIC [4, 9] [µg/mL] | MIC ([5]; DP1TYPEI, read-out: Minimum inhibitory concentration (MIC)) [µg/mL] | MIC [6, 9] [µg/mL] | MIC [7, 9] [µg/mL]
CCC(=O)O[C@@H]1CC(=O)O[C@H](C)CCN(CCCCc2ccccc2)C[C@H](O)[C@H](C)C[C@H](CC=O)[C@H](O[C@@H]2O[C@H](C)[C@@H](O[C@H]3C[C@@](C)(OC(C)=O)[C@@H](OC(=O)CC)[C@H](C)O3)[C@H](N(C)C)[C@H]2O)[C@H]1OC [Example 19] | no decrease in antibacterial activities | 0.25 (≈ 0.255 µM) | 2 (≈ 2.04 µM) | 0.13 (≈ 0.133 µM) | 0.06 (≈ 0.0613 µM) | 0.03 (≈ 0.0306 µM) | 0.5 (≈ 0.511 µM) | higher antibacterial activities than MOM | – | – | – | – | – | –
CCC(=O)O[C@@H]1CC(=O)O[C@H](C)CCN(CCCc2ccnc3ccccc23)C[C@H](O)[C@H](C)C[C@H](CC=O)[C@H](O[C@@H]2O[C@H](C)[C@@H](O[C@H]3C[C@@](C)(OC(C)=O)[C@@H](OC(=O)CC)[C@H](C)O3)[C@H](N(C)C)[C@H]2O)[C@H]1OC [Example 25, (−)-(3R,4S,5S,6R,8R,9R,14R)-5-[4-O-(3-O-acetyl-2,6-dideoxy-3-C-methyl-4-O-propionyl-α-L-ribo-hexopyranosyl)-3,6-dideoxy-3-dimethylamino-8-D-glucopyranosyl]-6-formylmethyl-9-hydroxy-4-methoxy-8-methyl-3-propionyloxy-11-(3-(quinolin-4-yl)propyl)-11-aza-pentadecan-14-olide] | – | 0.25 (≈ 0.246 µM) | 1 (≈ 0.984 µM) | 0.06 (≈ 0.059 µM) | 0.06 (≈ 0.059 µM) | 0.03 (≈ 0.0295 µM) | 0.5 (≈ 0.492 µM) | higher antibacterial activities than MOM | – | – | – | – | – | –
CCC(=O)O[C@@H]1CC(=O)O[C@H](C)C/C=C/C=C/[C@H](OC(C)=O)[C@H](C)C[C@H](CC=O)[C@H](O[C@@H]2O[C@H](C)[C@@H](O[C@H]3C[C@@](C)(OC(C)=O)[C@@H](OC(=O)CC)[C@H](C)O3)[C@H](N(C)C)[C@H]2O)[C@H]1OC [MOM, miokamycin, reference compound] | apparent decreases in antibacterial activities | – | – | – | – | – | – | – | 1 (≈ 1.11 µM) | 4 (≈ 4.45 µM) | 0.25 (≈ 0.278 µM) | 0.25 (≈ 0.278 µM) | 0.13 (≈ 0.145 µM) | 1 (≈ 1.11 µM)
